Source: patent US20210052532A1, “COMPOSITIONS AND METHODS FOR TREATMENT OF INSULIN RESISTANCE” (TEMPLE UNIVERSITY - OF THE COMMONWEALTH SYSTEM OF HIGHER …, priority 2018, published 2021)

Key:
[1] = Adduct formation with the reactive aldehyde 4-HNE; conditions: diverts 4-HNE from damaging GLUT-4 by carbonylation
From the text: (§1) Without wishing to be bound by any theory, compounds of Formula I-III form adducts with reactive aldehydes such as 4-HNE, thereby diverting 4-HNE from damaging proteins such as GLUT-4, by carbonylation. […] Restoration of GLUT-4 function results in enhancement or restoration of adipocyte insulin sensitivity and the resumption or enhancement of glucose uptake.

[2] = test system: adipocyte glucose uptake; experiment: Overnutrition-induced adipocyte glucose uptake impairment; type: cell-based; conditions: adipocytes
From the text: as §1

[3] = test system: 3T3-L1 adipocytes; experiment: Toxicity of the 4-HNE dose to the treated cells; type: cell-based; conditions: 20 μM of 4-HNE, 4h, transduced 3T3-L1 adipocytes
Protocol: (§2) GLUT4 carbonylations impair its function. To directly link the function impairment due to GLUT4 carbonylations to insulin resistance in vitro, GLUT4-SNAP fusion construct were generated and retroviral transduction in 3T3-L1 adipocytes were performed to overexpress the GLUT4-SNAP protein. Twenty-four hours after the transduction, the cells were treated with and without 20 μM of 4-HNE for an additional 4h. This 4-HNE dose was chosen because it was similar to the physiological levels and was non-toxic. […] 3T3-L1 adipocytes were treated with either 20 M of 4-HNE or H2O2 or the combination of both for 4 hr and were then stimulated with 100 nM insulin for 60 min. The glucose uptake was measured by an MRM method.

[4] = test system: GLUT4-SNAP protein; experiment: Formation of K264-HNE GLUT4 adduct in 3T3-L1 cells overexpressing GLUT4-SNAP (MRM); type: cell-based; conditions: 4-HNE 20 μM for 4 hr, FIG. 3
From the text: FIG. 3 provides typical MRM data showing an increase in the transitions of HNE-induced K264-HNE adduct (left panel) which were used to calculate the amounts of carbonylated GLUT4 (right panel). Four transitions of the GLUT4 peptide found in humans are shown. The sequence of the carbonylated GLUT4 peptide LTGWADVSGVLAELKDEK-4HNE (SEQ ID NO:1) is depicted.
Certain conditions such as overnutrition can lead to oxidative stress, and the generation of reactive aldehydes such as 4-HNE, which react with cysteine, lysine and histidine residues of proteins via Michael addition and Schiff base formation. 4-HNE can form HNE-Michaels adducts on GLUT4, the major insulin-facilitated glucose transporter in adipose tissue. 3T3-L1 adipocytes retrovirally transduced to overexpress the GLUT4-SNAP protein formed a K264-HNE GLUT4 adduct upon treatment with 4-HNE. The same K264-HNE GLUT4 adduct is elevated in the fat tissue of human pre-diabetic and diabetic individuals.
GLUT4 carbonylations impair its function. To directly link the function impairment due to GLUT4 carbonylations to insulin resistance in vitro, GLUT4-SNAP fusion construct were generated and retroviral transduction in 3T3-L1 adipocytes were performed to overexpress the GLUT4-SNAP protein. […] The glucose uptake was measured by an MRM method.

[5] = test system: 3T3-L1 adipocytes; experiment: Insulin-stimulated glucose uptake in 3T3-L1 adipocytes, measured by MRM; type: cell-based; conditions: 3T3-L1 adipocytes treated 4 hr with 20 M (so in the source) of 4-HNE or H2O2 or both, then 100 nM insulin 60 min; FIG. 4 legend: 4-HNE 20 μM, H2O2 100 μM
Protocol: FIG. 4 graphically depicts glucose transport impairment in 3T3-L1 cells when exposed to 4-HNE (20 μM) and/or H2O2 (100 μM) for 4 hr.
as §2

SMILES	adduct formation with 4-HNE [1]	effect on glucose uptake impairment [2]	toxicity of dose [3]	formation of the K264-HNE adduct [4]	glucose uptake reduced / decrease in the glucose uptake [5] [%]
Cl.Cl.NCCCNCCCC[C@H](N)C(=O)O [Example 4, (S)-2-amino-6-((3-aminopropyl)amino)hexanoic acid dihydrochloride]	forms an adduct with 4-HNE	reversing overnutrition-induced glucose uptake impairment	–	–	–
CCCCCC(O)/C=C/C=O (stereo not drawn) [Example 4-HNE, 4-hydroxynonenal]	–	–	non-toxic	induced the formation of the K264-HNE adduct	32
OO [Example H2O2]	–	–	–	–	66
